# Measurements from patent publication US6013628A, “Method for treating conditions of the eye using polypeptides” (Regents of the University of Minnesota, priority 1995, dated 2000).
# No end group written: not given here.
# Legend:
# [1] = test system: rabbit conjunctival fibroblasts; experiment: Conjunctival fibroblast proliferation, tritiated thymidine assay; assay type: cell-based; settings: for Thymidine uptake: day 4, no drug control 8537 cpm
# Description: The failure of gluacoma treatment by filtration surgery is most often caused by scarring. Scarring requires fibroblast proliferation and fibrosis of the subconjunctive space. Proliferation of rabbit conjunctival fibroblasts was studied using the tritiated thymidine assay, which serves as an in vitro model of fibroblast proliferation in the rabbit eye (see Invest. Ophthalmol. Vis. Sci., 31, 1848-1855 (1990)). The ability of synthetic polypeptides derived from ECM molecules to inhibit conjuntival fibroblast proliferation was examined in this model.
# Rabbit conjunctival fibroblasts were plated into 96-well microtiter plates at 1000 cells/well in 200 microliters of standard fibroblast culture media. Standard fibroblast culture media include Eagle's minimal essential medium containing 15% fetal bovine serum, penicillin G 100 IU/ml, streptomycin 100 μg/ml, and amphotericin B 0.25 μg/ml. Hep-II was added to the wells in concentrations ranging from 1 μg/ml to 1000 μg/ml after removing an equal volume of media to maintain 200 microliters/well. The peptide was used in concentrations of 1, 3, 7, 10, 25, 50, 100, 200, 300, 400, 500, 600, 800 and 1000 microgram/ml (experiments 1-14, respectively in FIG. 26). The tissue culture plates were incubated at 37° C. in a humidified atmosphere of 5% carbon dioxide. Two separate sets experiments were conducted. Each set of experiments was done in replicates of four. In the first set of experiments, tritiated thymidine was added 22 hours prior to each harvesting on days 4, 5, and 8. In the second set of experiments, tritiated thymidine was added 22 hours prior to each harvesting on days 4, 5, and 6. Wells with vehicle but no test compound served as negative controls (experiment #15) and cells with mitomycin-C at 100 μg/ml served as positive controls (experiment #16).
# [2] = test system: filtration surgery in rabbits; experiment: Rabbit model of glaucoma filtration surgery failure; assay type: in vivo; parameters: IOP: unit not given here
# Experimental: The rabbit model for filtration surgery is described by Bergstrom TJ, and Skuta GL. et al. in Arch. Ophthalmol, 109(12):1725-30, 1991. Two New Zealand white albino rabbits were used in the study. All animals were treated according to ARVO Animal Use Guidelines. All eyes were examined prior to initiation of a study and only clinically normal animals were used.
# All the rabbits underwent preoperative examination and the intraocular pressure (IOP) was measured by pneumatonometry (PneumaTonometer, Digilab Model 30R, Cambridge, Mass.). The rabbits were anesthetized using an intramuscular injection of a mix of ketamine (30 mg/kg) and xylazine (5 mg/kg). A posterior lip sclerectomy was then performed on both eyes of each animal during the same period of anesthesia. […] The superotemporal conjuctiva and Tenon's capsule was incised near the fornix, and the dissection was performed anteriorly to the limbus. The anterior chamber was entered at the filtration site and a 1-mm by 3-mm block of limbal scleral tissue was excised from the posterior lip of the wound with the Kelly-Descemet punch. A peripheral iridectomy was then performed with Vannas scissors and curved jeweler's forceps. Hand-held thermal cautery was used as needed to provide hemostasis. The conjunctiva was closed with a running 10-0 nylon suture. The right eye received subconjunctival injection of the Hep-II dissolved in 0.15 ml distilled water at the end of the filtration surgery and the left eye, which served as the control, received an equal volume of distilled water. These and each of the subsequent injections were made into the area of the bleb. No prophylactic antibiotics, cycloplegic, or corticosteroid was applied to either eye intraoperatively or postoperatively. Postoperative evaluation included examination with a portable slit-lamp biomicroscope, evaluation of the filtering bleb and intraocular pressure measurements obtained with a pneumatonometer. At the end of the study the animals were sacrificed while under anesthesia with an intravenous injection of 1 cc of euthanasia solution.
# The results of filtration surgery were evaluated by monitoring intraocular pressures and visual inspection of scarring and vascularization. The ability of ability of a synthetic polypeptide to prolong the effect of glaucoma treatment by filtration surgery was examined using the rabbit model. The right eye was treated with subconjunctival injection of 1 milligram of Hep-II dissolved in 0.15 ml of distilled water at the end of filtration surgery and every other day for a total of eight injections. The left eye served as the control and received an equal volume of distilled water on those days. The intraocular pressures (IOP) were checked using a pneumatonometer every day until day 9 and roughly every other day until day 28 (Table V and FIG. 27). […] Control eyes reached pre-operative pressures between about day 4 and day 9.
# [3] = 3H-heparin; cited from earlier work
sequence,measurement,setting,value
"LAGSCLARFSTM [Hep-II, Leu-Ala-Gly-Ser-Cys-Leu-Ala-Arg-Phe-Ser-Thr-Met]",Thymidine uptake,[1]; 800 microgram/ml,580 cpm
same,Thymidine uptake,[1]; 1000 microgram/ml,589 cpm
same,Concentration effective in controlling fibroblast proliferation in vitro,[1]; similar to mitomycin-C,800-1000 microgram/ml
same,IOP in treated eyes versus control eyes,"[2]; 1 milligram subconjunctival every other day, eight injections, 28 days, p<0.001",lower than the control eyes
same,IOP,"[2]; Rabbit #3 OD (1 milligram Hep-II subconjunctival, eight injections), Post op #1, Pre op 32, control OS 22",24
same,IOP,"[2]; Rabbit #3 OD (1 milligram Hep-II subconjunctival, eight injections), Post op #2, Pre op 32, control OS 31",30
same,IOP,"[2]; Rabbit #3 OD (1 milligram Hep-II subconjunctival, eight injections), Post op #3, Pre op 32, control OS 30",25
same,IOP,"[2]; Rabbit #3 OD (1 milligram Hep-II subconjunctival, eight injections), Post op #4, Pre op 32, control OS 32",23
same,IOP,"[2]; Rabbit #3 OD (1 milligram Hep-II subconjunctival, eight injections), Post op #5, Pre op 32, control OS 32",22
same,IOP,"[2]; Rabbit #3 OD (1 milligram Hep-II subconjunctival, eight injections), Post op #6, Pre op 32, control OS 32",21
same,IOP,"[2]; Rabbit #3 OD (1 milligram Hep-II subconjunctival, eight injections), Post op #7, Pre op 32, control OS 30",21
same,IOP,"[2]; Rabbit #3 OD (1 milligram Hep-II subconjunctival, eight injections), Post op #8, Pre op 32, control OS 31",24
same,IOP,"[2]; Rabbit #3 OD (1 milligram Hep-II subconjunctival, eight injections), Post op #9, Pre op 32, control OS 30",22
same,IOP,"[2]; Rabbit #3 OD (1 milligram Hep-II subconjunctival, eight injections), Post op #13, Pre op 32, control OS 30",24
same,IOP,"[2]; Rabbit #3 OD (1 milligram Hep-II subconjunctival, eight injections), Post op #14, Pre op 32, control OS 28",18
same,IOP,"[2]; Rabbit #3 OD (1 milligram Hep-II subconjunctival, eight injections), Post op #15, Pre op 32, control OS 33",25
same,IOP,"[2]; Rabbit #3 OD (1 milligram Hep-II subconjunctival, eight injections), Post op #16, Pre op 32, control OS 35",27
same,IOP,"[2]; Rabbit #3 OD (1 milligram Hep-II subconjunctival, eight injections), Post op #18, Pre op 32, control OS 34",26
same,IOP,"[2]; Rabbit #3 OD (1 milligram Hep-II subconjunctival, eight injections), Post op #20, Pre op 32, control OS 32",25
same,IOP,"[2]; Rabbit #3 OD (1 milligram Hep-II subconjunctival, eight injections), Post op #21, Pre op 32, control OS 32",28
same,IOP,"[2]; Rabbit #3 OD (1 milligram Hep-II subconjunctival, eight injections), Post op #24, Pre op 32, control OS 32",26
same,IOP,"[2]; Rabbit #3 OD (1 milligram Hep-II subconjunctival, eight injections), Post op #27, Pre op 32, control OS 34",33
same,IOP,"[2]; Rabbit #3 OD (1 milligram Hep-II subconjunctival, eight injections), Post op #28, Pre op 32, control OS 35",33
same,IOP,"[2]; Rabbit #4 OD (1 milligram Hep-II subconjunctival, eight injections), Post op #1, Pre op 34, control OS 25",24
same,IOP,"[2]; Rabbit #4 OD (1 milligram Hep-II subconjunctival, eight injections), Post op #2, Pre op 34, control OS 25",30
same,IOP,"[2]; Rabbit #4 OD (1 milligram Hep-II subconjunctival, eight injections), Post op #3, Pre op 34, control OS 20",22
same,IOP,"[2]; Rabbit #4 OD (1 milligram Hep-II subconjunctival, eight injections), Post op #4, Pre op 34, control OS 25",22
same,IOP,"[2]; Rabbit #4 OD (1 milligram Hep-II subconjunctival, eight injections), Post op #5, Pre op 34, control OS 30",24
same,IOP,"[2]; Rabbit #4 OD (1 milligram Hep-II subconjunctival, eight injections), Post op #6, Pre op 34, control OS 31",23
same,IOP,"[2]; Rabbit #4 OD (1 milligram Hep-II subconjunctival, eight injections), Post op #7, Pre op 34, control OS 30",23
same,IOP,"[2]; Rabbit #4 OD (1 milligram Hep-II subconjunctival, eight injections), Post op #8, Pre op 34, control OS 32",25
same,IOP,"[2]; Rabbit #4 OD (1 milligram Hep-II subconjunctival, eight injections), Post op #9, Pre op 34, control OS 37",26
same,IOP,"[2]; Rabbit #4 OD (1 milligram Hep-II subconjunctival, eight injections), Post op #13, Pre op 34, control OS 32",27
same,IOP,"[2]; Rabbit #4 OD (1 milligram Hep-II subconjunctival, eight injections), Post op #14, Pre op 34, control OS 27",20
same,IOP,"[2]; Rabbit #4 OD (1 milligram Hep-II subconjunctival, eight injections), Post op #15, Pre op 34, control OS 35",25
same,IOP,"[2]; Rabbit #4 OD (1 milligram Hep-II subconjunctival, eight injections), Post op #16, Pre op 34, control OS 37",28
same,IOP,"[2]; Rabbit #4 OD (1 milligram Hep-II subconjunctival, eight injections), Post op #18, Pre op 34, control OS 35",27
same,IOP,"[2]; Rabbit #4 OD (1 milligram Hep-II subconjunctival, eight injections), Post op #20, Pre op 34, control OS 34",27
same,IOP,"[2]; Rabbit #4 OD (1 milligram Hep-II subconjunctival, eight injections), Post op #21, Pre op 34, control OS 40",32
same,IOP,"[2]; Rabbit #4 OD (1 milligram Hep-II subconjunctival, eight injections), Post op #24, Pre op 34, control OS 34",28
same,IOP,"[2]; Rabbit #4 OD (1 milligram Hep-II subconjunctival, eight injections), Post op #27, Pre op 34, control OS 36",33
same,IOP,"[2]; Rabbit #4 OD (1 milligram Hep-II subconjunctival, eight injections), Post op #28, Pre op 34, control OS 36",35
same,Effect on duration of filtration surgery effect,[2]; rabbits in vivo,prolongs the effect of filtration surgery
same,Day until which blebs remained avascular (appeared functional),"[2]; treated eyes, control eyes until day 10",18 days
same,Heparin binding,[3],reported to bind heparin
